Patent US6649763B1, “Optically active quinoline carboxylic acid derivatives with 7-pyrrolidine substituents causing optical activity and a process for the preparation thereof” (Dong Wha Pharm. Ind. Co., Ltd., priority 1999, dated 2003)

Legend:
[1] = system: Staphylococcus aureus 121E; assay: Antibacterial activity in vitro (MIC, agar dilution); format: cell-based; conditions: resistant strain Staphylococcus aureus 121E
Description: (§1) The optically active quinoline carboxylic acid derivatives of the present invention were tested as to whether they could be useful as antibacterial compounds. In this regard, the compounds were measured for minimum inhibitory concentration (MIC: unit μg/ml) according to an agar dilution process (Hoechst 345) in which Muller-Hinton agars were diluted two fold. For comparison, ciprofloxacin and sparfloxacin were used as controls. Corresponding enantiomers and racemates of the compounds of interest were also used as comparative ones. Bacteria were inoculated at an amount of about 10^7 cfu/ml onto each agar. 18 hours after the inoculation at 37° C., the growth of the bacteria was observed. As to methicillin-resistant strains, their growth was observed 48 hours after the inoculation at […]. Hoechst standard strains were used as the test bacteria.

[2] = system: Staphylococcus aureus 179; assay: as above; format: cell-based; conditions: resistant strain Staphylococcus aureus 179
Description: as §1

[3] = system: Staphylococcus aureus 208E; assay: as above; format: cell-based; conditions: resistant strain Staphylococcus aureus 208E
Description: as §1

[4] = system: Staphylococcus aureus 241; assay: as above; format: cell-based; conditions: resistant strain Staphylococcus aureus 241
Description: as §1

[5] = system: Staphylococcus aureus 256E; assay: as above; format: cell-based; conditions: resistant strain Staphylococcus aureus 256E
Description: as §1

[6] = system: Staphylococcus aureus 293; assay: as above; format: cell-based; conditions: resistant strain Staphylococcus aureus 293
Description: as §1

[7] = system: Staphylococcus aureus 303; assay: as above; format: cell-based; conditions: resistant strain Staphylococcus aureus 303
Description: as §1

[8] = system: Staphylococcus aureus 690E; assay: as above; format: cell-based; conditions: resistant strain Staphylococcus aureus 690E
Description: as §1

[9] = system: Staphylococcus aureus 692E; assay: as above; format: cell-based; conditions: resistant strain Staphylococcus aureus 692E
Description: as §1

[10] = system: Staphylococcus aureus 693E; assay: as above; format: cell-based; conditions: resistant strain Staphylococcus aureus 693E
Description: as §1

[11] = system: Staphylococcus aureus 88E; assay: as above; format: cell-based; conditions: resistant strain Staphylococcus aureus 88E
Description: as §1

[12] = system: Staphylococcus epidermidis 319; assay: as above; format: cell-based; conditions: resistant strain Staphylococcus epidermidis 319
Description: as §1

[13] = system: Staphylococcus epidermidis 329; assay: as above; format: cell-based; conditions: resistant strain Staphylococcus epidermidis 329
Description: as §1

Phototoxicity test = format: in vivo; conditions: CD-1 female mice, oral 50 mg/kg; for Thickness of mice's ears after UV exposure, After 24 hr / Thickness of mice's ears after UV exposure, After 48 hr: UVA light source; for Thickness of mice's ears after UV exposure, After 24 hr / Thickness of mice's ears after UV exposure, After 48 hr / Thickness of mice's ears, Before UV exposure: 50 mg/kg; for edema and erythema observed after UV exposure / increase in ear thickness compared with before the UV exposure: after 48 hours of the UV exposure; for Thickness of mice's ears, Before UV exposure: baseline before UVA
Description: It is known that the presence of a halogen atom at the 8-position of the quinolone nuclei causes phototoxicity.
After 16 hours of starvation, CD-1 female mice were orally administered with a dose of 50 mg/kg of the compounds and allowed to be exposed for 4.5 hours to a UVA light source. The mice were located 15 cm away from the light source. Whether the mice were damaged in their ears was adopted as a main factor for the phototoxicity and determined after 24 hour and 48 hour UV exposure. The edema which the mice suffered were examined by measuring the thickness changes of their ears with the aid of electronic calipers and calculating average values. Also, an observation was made as to whether the mice suffered from erythema.

[14] = listed as Racemic mixture of Example 14 compound
[15] = listed as racemate of the compound of Example 14, 50 mg/kg
[16] = listed as enantiomer of the compound of Example 14, 50 mg/kg

SMILES | minimum inhibitory concentration (MIC) [1] | minimum inhibitory concentration (MIC) [2] | minimum inhibitory concentration (MIC) [3] | minimum inhibitory concentration (MIC) [4] | minimum inhibitory concentration (MIC) [5] | minimum inhibitory concentration (MIC) [6] | minimum inhibitory concentration (MIC) [7] | minimum inhibitory concentration (MIC) [8] | minimum inhibitory concentration (MIC) [9] | minimum inhibitory concentration (MIC) [10] | minimum inhibitory concentration (MIC) [11] | minimum inhibitory concentration (MIC) [12] | minimum inhibitory concentration (MIC) [13] | also measured
CO/N=C1\CN(c2nc3c(cc2F)c(=O)c(C(=O)O)cn3C2CC2)CC1(C)CN.Cl (racemic) [Racemate of Example 9 Compound] | 0.007 µg/mL | 0.195 µg/mL | 0.007 µg/mL | 0.195 µg/mL | 0.007 µg/mL | 0.195 µg/mL | 0.195 µg/mL | 0.004 µg/mL | <0.002 µg/mL | 0.007 µg/mL | 0.007 µg/mL | 0.391 µg/mL | 0.781 µg/mL | 
CO/N=C1\CN(c2c(F)c(N)c3c(=O)c(C(=O)O)cn(C4CC4)c3c2F)CC1(C)CN.Cl (racemic) [Racemate of Example 14 Compound] | <0.002 µg/mL | 0.025 µg/mL | <0.002 µg/mL | 0.025 µg/mL | <0.002 µg/mL | 0.025 µg/mL | 0.025 µg/mL | <0.002 µg/mL | <0.002 µg/mL | <0.002 µg/mL | <0.002 µg/mL | 0.049 µg/mL | 0.098 µg/mL | Thickness of mice's ears after UV exposure, After 24 hr (Phototoxicity test; [14]): 23.5 ± 1.31; Thickness of mice's ears after UV exposure, After 48 hr (Phototoxicity test; [14]): 24.4 ± 2.33; edema and erythema observed after UV exposure (Phototoxicity test; [15]): moderate edema and erythema; increase in ear thickness compared with before the UV exposure (Phototoxicity test; [15]): 39%; Thickness of mice's ears, Before UV exposure (Phototoxicity test; [14]): 17.6 ± 0.52
CO/N=C1\CN(c2cc3c(cc2F)c(=O)c(C(=O)O)cn3C2CC2)CC1(C)CN.Cl (racemic) [Racemate of Example 19 Compound] | 0.013 µg/mL | 0.391 µg/mL | 0.013 µg/mL | 0.391 µg/mL | 0.013 µg/mL | 0.391 µg/mL | 0.391 µg/mL | 0.007 µg/mL | 0.013 µg/mL | 0.013 µg/mL | 0.013 µg/mL | 0.781 µg/mL | 0.781 µg/mL | 
CO/N=C1\CN(c2nc3c(cc2F)c(=O)c(C(=O)O)cn3C2CC2)CC1(C)CN.Cl (single isomer, unassigned) [Enantiomer of Example 9 Compound] | 0.049 µg/mL | 1.563 µg/mL | 0.049 µg/mL | 1.563 µg/mL | 0.025 µg/mL | 1.563 µg/mL | 0.781 µg/mL | 0.025 µg/mL | 0.025 µg/mL | 0.025 µg/mL | 0.025 µg/mL | 6.250 µg/mL | 12.500 µg/mL | 
CO/N=C1\CN(c2c(F)c(N)c3c(=O)c(C(=O)O)cn(C4CC4)c3c2F)CC1(C)CN.Cl (single isomer, unassigned) [Enantiomer of Example 14 Compound] | 0.013 µg/mL | 0.195 µg/mL | 0.013 µg/mL | 0.195 µg/mL | 0.013 µg/mL | 0.195 µg/mL | 0.195 µg/mL | 0.004 µg/mL | 0.004 µg/mL | 0.004 µg/mL | 0.007 µg/mL | 0.781 µg/mL | 1.563 µg/mL | Thickness of mice's ears after UV exposure, After 24 hr (Phototoxicity test): 36.3 ± 3.01; Thickness of mice's ears after UV exposure, After 48 hr (Phototoxicity test): 44.5 ± 4.0; edema and erythema observed after UV exposure (Phototoxicity test; [16]): serious edema and erythema; increase in ear thickness compared with before the UV exposure (Phototoxicity test; [16]): 150%; Thickness of mice's ears, Before UV exposure (Phototoxicity test): 17.8 ± 0.89
CO/N=C1\CN(c2cc3c(cc2F)c(=O)c(C(=O)O)cn3C2CC2)CC1(C)CN.Cl (single isomer, unassigned) [Enantiomer of Example 19 Compound] | 0.098 µg/mL | 3.125 µg/mL | 0.098 µg/mL | 3.125 µg/mL | 0.098 µg/mL | 3.125 µg/mL | 3.125 µg/mL | 0.049 µg/mL | 0.049 µg/mL | 0.098 µg/mL | 0.098 µg/mL | 12.500 µg/mL | 12.500 µg/mL | 
